Test results from patent EP3683219A1, “COMPOUND INHIBITING BUTYRYLCHOLINESTERASE” (Julius-Maximilians-Universität Würzburg, priority 2019, dated 2020).

Key:
hBChE [1] = molecular target: T1, hBChE (Homo sapiens, UniProt P06276); assay: Decarbamoylation from hBChE, dilution experiments (recovery of enzyme activity, k4); assay type: biochemical; settings: decarbamoylation rate, after 1 h incubation and 1:1000 dilution
Experimental: To further investigate the presence and nature of a peripheral binding site, also the hydrolysis of carbamate and the resulting release of the inhibitor from the enzyme was investigated by measuring the time dependent recovery of enzyme activity. To measure the decarbamoylation rate k4, dilution experiments were performed with hBChE following the procedure described in Sawatzky, E. et al., ChemMedChem 2016, 11, 1540-1550 and in Bartolucci, C. et al., Biochem. J. 2012, 444, 269-277. A high concentration of enzyme and inhibitor where incubated for 1 h. The concentration of inhibitor was chosen, such that > 85% of hBChE was inhibited through carbamate transfer. Then the mixture was diluted with buffer 1:1000 to a concentration at which the enzyme is not further carbamoylated. Due to the hydrolysis and release of the carbamate from the catalytic active serine enzyme activity was recovered slowly. This regeneration of the enzyme was monitored at different time points after the dilution. […] A = (1−e^(k4 ⋅t))⋅(1−A0) + A0 [formula] Table 4. Kinetic values for decarbamoylation from hBChE of selected compounds

hAChE = hAChE (Homo sapiens, UniProt P22303); assay: Ellman's colorimetric assay, inhibition of hAChE; assay type: biochemical
Experimental: (§1) For evaluation of enzyme inhibition, Ellman's colorimetric assay was conducted as described in Ellman, G. L., Arch. Biochem. Biophys 1958, 74, 443-450 and Ellman, G. L. et al., Biochem. Pharmacol. 1961, 7, 88-95. Therefor, 5,5'-dithiobis-(2-nitrobenzoic acid) (DTNB) solution, respective Cholinesterase (ChE) and inhibitor were incubated together and enzyme activity was measured after 20 min. The long incubation time was needed to allow the carbamate transfer between ChE and inhibitor.
(§2) The carbamate residue was altered systematically by changing residues in the terminal position of carbamate moiety and different flexible alkylene linkers were introduced. […] Nevertheless, it must be noted that IC50 values only serve as a first indicator of inhibitor affinity and selectivity. Due to the chemical reaction of carbamate transfer the enzyme inhibition is strongly time dependent. […]

hBChE [2] = molecular target: T1, hBChE; assay: Carbamoylation kinetics on hBChE (time-dependent inhibition, Kc and k3); assay type: biochemical; settings: for k3 [min^-1] hBChE: carbamoylation rate constant; for Kd: carbamoylation, pre-equilibrium constant
From the text: As carbamate based inhibitors (C-X) show a pseudo irreversible manner of binding, the IC50 values must be seen critically because two chemical reactions determine them: Carbamate (C) transfer onto the enzyme (E) and carbamate hydrolysis. So, the Kc values, k3 and k4 rate constants according to below formula were investigated for some representative compounds (c.f. Fig. 3 and Fig. 4). [formula]
The mechanism of enzyme inhibition can be divided into three steps: In a pre-equilibrium, the carbamate based inhibitor C-X is bound to the enzyme E and a complex (EC-X) is formed reversible and can be characterized with Kc. Then the carbamate C is transferred onto the enzyme E and binds covalently to form E-C with the rate constant k3 while carrier scaffold X is released. Then E-C is hydrolyzed and enzyme activity is recovered and the amine C' is released with the rate constant k4, also called decarbamoylation rate.
For the determination of Kc and k3 a similar experimental setup was used compared to the evaluation of IC50 values, whereas enzyme activity was measured at various time points after addition of inhibitor.
A = A0 ⋅e^(−kobs ⋅t) + A∞ [formula]
Plotting the enzyme activity (in %) against the incubation times, lead to nonlinear time-dependent inhibition curves for the respective inhibitor concentrations whereby kobs can be determined with an exponential fit correspondent to equation (I).
Furthermore, a hyperbolic curve is obtained, plotting the rate constant kobs against the inhibitor concentration [I], which is described by equation (II), with the substrate concentration [S] and the Michaelis-Menten constant KM. kobs = (k3 ⋅[I])/(KC ⋅(1+([S])/(KM)) + [I]) [formula]
This equation (II) can be rearranged to the reciprocal of kobs, to get a linear plot: (1)/(kobs) = (KC ⋅(1+([S])/(KM)))/(k3)⋅(1)/([I]) + (1)/(k3) [formula]
Since the substrate butyrylthiocholine iodide is not added directly to the enzyme and the inhibitor, but after the incubation of enzyme with inhibitor, [S] can be set to zero, leading to Michaelis-Menten like equation IV. (1)/(kobs) = (KC)/(k3)⋅(1)/([I]) + (1)/(k3) [formula]
Relating to the linear equation (IV), KC can be established from the slope and carbamoylation rate constant k3 from the y-intercept.
As a chemical reaction is taking place, Kc must be seen as a 'real' measure for quantification of enzyme inhibitor interactions. Due to the high costs in measurements on hBChE only some representative compounds were chosen to evaluate also in kinetic studies based on the results from IC50 measurements (table 3). Table 3. Kinetic values for carbamoylation on hBChE for selected representative compounds

[3] = system: Aβ25-35-induced spontaneous alternation deficits; assay: Spontaneous alternation test in the Y-maze, Aβ25-35-injected mice; assay type: in vivo, male Swiss mice; settings: for prevention of the effects of Aβ injection, both behavioral parameters: dose of 1 or 3 mg/kg ip, Y-maze and passive avoidance; for dose active on Aβ25-35-induced spontaneous alternation deficits: ip o.d. day 1 to 7
Experimental: 2013, 38, pages 1706-1723.
AD-like cognitive dysfunctions were induced in male Swiss mice, 6 weeks old, weighing 31-36 g by intracerebroventricular (icv) injection of the oligomerized Aβ25-35 peptide into the mouse brain on day 1.
Compounds were weighed, dissolved in pure DMSO at a concentration of 1 mg/ml and diluted into final test concentrations with saline. The final percentage of DMSO in saline was 60% for all compounds. Vehicle solution used for control groups was 60% DMSO in saline. Compounds were injected intraperitoneally (ip) from day 1 to 7 and behavioral studies were conducted between day 8 and 10. Spatial working memory was evaluated using a spontaneous alternation test in a Y-maze on day 8. The Y-maze is made of grey polyvinylchloride. Each arm is 40 cm long, 13 cm high, 3 cm wide at the bottom, 10 cm wide at the top, and converging at an equal angle. Each mouse is placed at the end of one arm and allowed to explore the maze freely for 8 min. The sequence of arm entries (including possible returns into the same arm) was checked visually and noted down. If the mouse enters all three arms on consecutive occasion, this is defined as an alternation. Therefore, the total number of arm entries minus two is also the maximum number of alternations. The percentage of alternation was calculated as (actual alternations / maximum alternations) x 100. Parameters for the evaluation of behavior are given as the percentage of alternation (memory index) and a total number of arm entries (exploration index).
Figs. 7a-h show the effect of the compounds on Aβ25-35-induced spontaneous alternation deficits in mice. […] Figs. 7a, c, e, g: spontaneous alternation performance; Figs. 7b, d, f, h: number of arm entries in the Y-maze test performed at day 8.

[4] = system: Aβ25-35-induced passive avoidance impairments; assay: Step-through passive avoidance test, Aβ25-35-injected mice; assay type: in vivo, male Swiss mice; settings: 0.3-3 mg/kg ip o.d. day 1 to 7; retention day 10
hBChE [5] = molecular target: T1, hBChE; assay: biochemical; assay type: biochemical; settings: for plC50 ± SEM (hBChE) / IC50: enzyme activity measured after 20 min incubation; for IC50: read-out: IC50 hBChE; for Selectivity index (IC50 hAChE/IC50 hBChE): hAChE over hBChE
Experimental: as §1, §2

T1 sequence (P06276 29-602): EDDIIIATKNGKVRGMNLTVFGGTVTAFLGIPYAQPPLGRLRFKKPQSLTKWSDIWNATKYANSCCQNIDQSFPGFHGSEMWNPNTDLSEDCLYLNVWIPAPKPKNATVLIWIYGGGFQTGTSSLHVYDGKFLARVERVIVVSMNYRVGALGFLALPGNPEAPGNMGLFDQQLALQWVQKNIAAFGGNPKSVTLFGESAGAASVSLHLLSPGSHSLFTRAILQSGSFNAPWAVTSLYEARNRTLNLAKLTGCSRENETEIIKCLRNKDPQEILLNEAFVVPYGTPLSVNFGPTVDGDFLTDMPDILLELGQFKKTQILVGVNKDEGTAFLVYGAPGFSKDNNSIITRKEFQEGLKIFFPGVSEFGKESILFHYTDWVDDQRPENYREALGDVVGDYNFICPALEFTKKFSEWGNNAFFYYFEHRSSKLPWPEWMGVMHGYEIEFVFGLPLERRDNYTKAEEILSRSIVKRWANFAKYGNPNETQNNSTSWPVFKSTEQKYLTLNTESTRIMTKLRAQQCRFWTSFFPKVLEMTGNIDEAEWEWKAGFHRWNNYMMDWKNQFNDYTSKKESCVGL
hAChE, sequence (P22303 32-614): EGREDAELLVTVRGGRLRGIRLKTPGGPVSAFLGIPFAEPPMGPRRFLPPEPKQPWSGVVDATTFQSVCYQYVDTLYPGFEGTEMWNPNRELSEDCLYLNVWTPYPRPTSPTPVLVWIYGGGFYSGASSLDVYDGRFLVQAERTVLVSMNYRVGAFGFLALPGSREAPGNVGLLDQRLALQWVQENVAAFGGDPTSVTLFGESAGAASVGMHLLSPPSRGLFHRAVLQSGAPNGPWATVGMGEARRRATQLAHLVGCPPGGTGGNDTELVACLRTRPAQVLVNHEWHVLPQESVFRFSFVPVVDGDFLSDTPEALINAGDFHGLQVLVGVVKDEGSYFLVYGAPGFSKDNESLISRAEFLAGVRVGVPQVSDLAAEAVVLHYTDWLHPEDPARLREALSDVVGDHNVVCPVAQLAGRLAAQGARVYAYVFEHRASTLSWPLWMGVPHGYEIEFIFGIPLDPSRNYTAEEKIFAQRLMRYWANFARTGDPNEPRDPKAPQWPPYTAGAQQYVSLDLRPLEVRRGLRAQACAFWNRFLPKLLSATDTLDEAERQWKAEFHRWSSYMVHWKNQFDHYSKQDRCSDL

| SMILES | k4 (hBChE [1]) [h⁻¹] | inhibition at 10 µM (hAChE; 10 µM) [%] | Kc values (hBChE), in words (hBChE [2]) | k3 [min^-1] hBChE (hBChE [2]) [min⁻¹] | Kd (hBChE [2]) [nM] | prevention of the effects of Aβ injection, both behavioral parameters [3] | dose active on Aβ25-35-induced spontaneous alternation deficits ([3]; Y-maze day 8) [mg/kg ip] | effect on Aβ25-35-induced passive avoidance deficits (step-through latency, retention) [4] | plC50 ± SEM (hBChE) (hBChE [5]) | IC50 (hBChE [5]) [nM] | Selectivity index (IC50 hAChE/IC50 hBChE) (hBChE [5]) | effect on Aβ25-35-induced spontaneous alternation deficits ([3]; 0.3-3 mg/kg ip o.d. day 1 to 7, Y-maze day 8) | BChE inhibition, in words (hBChE [5]) | inhibition at 100 µM (hAChE; 100 µM, read-out: inhibition of hAChE) [%] | fold lower activity than heptyl carbamate 7 (IC50 hBChE) (hBChE [5]; compared with compound 7) |
| --- | --- | --- | --- | --- | --- | --- | --- | --- | --- | --- | --- | --- | --- | --- | --- |
| CN1c2ccc(OC(=O)NCCCCCCN3CCc4ccccc4C3)cc2CN2CCc3ccccc3C21 (stereo not shown) [Compound 19j] | 0.025 ± 0.001 | 9 | one-digit nanomolar range | 0.18 ± 0.02 | 3.6 ± 2.9 | fully prevented the effects of Aβ injection | 1 | effective at the 3 doses tested | 7.57 ± 0.05 | 26.7 | >1000 |  |  |  |  |
| CN1c2ccc(O)cc2CN2CCc3ccccc3C21 (stereo not shown) [Compound 13, reference compound] |  |  |  |  |  |  |  | not active |  |  |  | not active | lacking BChE inhibition |  |  |
| CN1c2ccc(OC(=O)NCCCCCCN3CCOCC3)cc2CN2CCc3ccccc3C21 (stereo not shown) [Compound 19d] | 0.042 ± 0.004 |  |  | 0.16 ± 0.02 | 202 ± 55 | fully prevented the effects of Aβ injection | 0.3 | effective at the 3 doses tested | 7.31 ± 0.02 | 49.3 | >1000 |  |  | 45 | approximately 10 fold |
